Reference: PubChem BioAssay (NCI)
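48-hour exposure; five concentrations; linearly interpolated endpoints. GI50 is the concentration that inhibits growth by half. TGI marks complete inhibition of growth.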

What was measured:
Test in all cases: NCI tumour cell line growth inhibition, 48 h
CCRF-CEM leukemia = tested on: CCRF-CEM leukemia
HCC-2998 colon = tested on: HCC-2998 colon
K-562 leukemia = tested on: K-562 leukemia
KM12 colon = tested on: KM12 colon
MDA-MB-435 = tested on: MDA-MB-435
NCI-H226 lung = tested on: NCI-H226 lung
SK-MEL-5 melanoma = tested on: SK-MEL-5 melanoma
SR leukemia = tested on: SR leukemia
TK-10 renal = tested on: TK-10 renal
UACC-257 melanoma = tested on: UACC-257 melanoma

Compound | GI50 (CCRF-CEM leukemia) [µM] | TGI (CCRF-CEM leukemia) [µM] | GI50 (HCC-2998 colon) [µM] | TGI (HCC-2998 colon) [µM] | GI50 (K-562 leukemia) [µM] | TGI (K-562 leukemia) [µM] | GI50 (KM12 colon) [µM] | TGI (KM12 colon) [µM] | GI50 (MDA-MB-435) [µM] | TGI (MDA-MB-435) [µM] | GI50 (NCI-H226 lung) [µM] | TGI (NCI-H226 lung) [µM] | GI50 (SK-MEL-5 melanoma) [µM] | TGI (SK-MEL-5 melanoma) [µM] | GI50 (SR leukemia) [µM] | TGI (SR leukemia) [µM] | GI50 (TK-10 renal) [µM] | TGI (TK-10 renal) [µM] | GI50 (UACC-257 melanoma) [µM] | TGI (UACC-257 melanoma) [µM]
CC(=O)O[C@@H]1C[C@]2(C(C)C)O[C@@]1(C)[C@@H]1CCC(C)=C1[C@@H]2OC(=O)/C=C/c1ccccc1 | 31.3 | > 100 | 68.1 | > 100 | 33.7 | > 100 | 40 | > 100 | 39.1 | > 100 | 29.1 | > 100 | 22.5 | 78.5 | 31.8 | > 100 | 93.2 | > 100 | 27.8 | > 100
O=C1/C(=C\c2cccn2Cc2ccccc2)c2ccccc2N1c1c(Cl)cccc1Cl | > 100 | > 100 | 1.83 | > 100 | > 100 | > 100 | 0.866 | > 53.4 | > 100 | > 100 | 14.9 | > 100 | 3.02 | > 100 | > 73.4 | > 100 | 0.978 | > 100 | > 100 | > 100
O=C(Nc1ccc(Cl)cc1F)c1cc(Br)ccc1O | 2.37 | > 27.6 | 2.73 | 13.3 | 0.678 | > 100 | 2.13 | 5.92 | 0.941 | 8.44 | 1.16 | 4.11 | 0.3 | 1.07 | 0.7 | > 23 | 4.15 | > 53.1 | 0.705 | 3.29
Cc1c(C2Nc3ccccc3C2C)[nH]c2ccccc12 (stereo not given) | 0.801 | 46.6 | 12.6 | 26.6 | 0.89 | 50.4 | 7.45 | 29.1 | 10.6 | 24.6 | 10.9 | 31.3 | 0.894 | 17.4 | 0.738 | 26.3 | 17.4 | 34.2 | 12.4 | 28.3
O=c1[nH]c2cc(Cl)ccc2n1C1CCN(CCCC(c2ccc(F)cc2)c2ccc(F)cc2)CC1 | 2.31 | 6.98 | 1.87 | 3.49 | 2.98 | > 100 | 1.68 | 3.27 | 1.32 | 2.63 | 1.87 | 3.53 | 1.55 | 2.89 | 2.25 | 8.36 | 1.94 | 3.55 | 1.56 | 3.04
Cc1cc(NC(=O)c2ccc(C)c(Nc3nccc(-c4cccnc4)n3)c2)cc(-n2cnc(C)c2)c1 | 0.134 | > 50 | 17.1 | > 35.6 | 0.0915 | 4.03 | 4.83 | 14.7 | 2.12 | 8.76 | 1.68 | 5.39 | 5.04 | 12.7 | 2.46 | 11.8 | 0.0882 | 2.2 | 1.53 | 5.92
CC(=O)c1c(CBr)n([O-])c2ccccc2[n+]1=O | 2.14 | 8.12 | 17.6 | 34.5 | 3.45 | 12.5 | 15 | 29.2 | 12.5 | 25.6 | 13.4 | 28 | 10.5 | 22.6 | 3.22 | 8.03 | 5.44 | 16.6 | 16.7 | 32.9
COC(COC(=O)N1CCN(C=O)CC1)C1=C(N2CC2)C(=O)C(C)=C(N2CC2)C1=O (stereo not given) | – | 4.77 | – | 38.1 | – | > 100 | – | 2.79 | – | 0.976 | – | 3.05 | – | 0.7 | – | < 0.011 | – | 2.09 | – | 1.9
CN(C)c1ccc2nc3ccc(=O)cc-3sc2c1 | 0.694 | 58.1 | 0.697 | > 100 | 0.919 | > 100 | 0.781 | > 78.7 | 0.31 | 0.985 | 7.59 | > 85.1 | 0.173 | 0.495 | 0.884 | > 46.5 | 13.8 | > 77.7 | 0.38 | 3.29
Fc1ccc(Nc2cc(-n3nnc4ccccc43)nc3ccccc23)cc1 | > 100 | > 100 | > 100 | > 100 | > 100 | > 100 | > 100 | > 100 | > 50.7 | > 100 | 19 | > 69 | 32.2 | > 100 | > 100 | > 100 | 23.5 | > 77.8 | 70.1 | > 100
